“Also recorded” adds a separate entry of the source.
Key:
HT22 neuronal cells = test: HT22 glutamate injury model, cell viability by XTT assay; assay type: cell-based; details: for neuroprotection in glutamate injury model: 1 μM LXB4, glutamate challenge
From the text: In order to confirm the bioactivity of the synthesized material, its neuroprotective effects were confirmed in a neuronal injury model. Recent clinical failures of a variety of neuroprotection trials have intensified interest in new treatment strategies. Evidence is accumulating that lipoxins and other lipid mediators can have an important impact on neuroinflammation and neuronal survival.[13,38] […] Yet the lack of efficient syntheses of LXB4 coupled with the expensive cost from commercial sources (USD$806/100 μg, Cayman Chemical)[36] have made this new mechanism of action challenging to modify and study. In this regard the presently described synthetic route towards LXB4, and analogues thereof, provide a benefit for improving production and/or reducing cost of production of LXB4 and analogues thereof. Therefore, the neuroprotective activity of newly synthesized LXB4 was compared it against the commercial source to confirm its activity.[36] For this assay, HT22 neuronal cells were pre-treated with LXB4 from both sources (commercial vs. in-house), followed by a glutamate challenge to induce excitotoxic cell death.[14] Cell viability was then measured using an XTT assay.
HT22 cells (SCC129, EMD Millipore) were grown on 100-mm tissue culture dishes (83.3902.300, Sarstedt) and maintained in high glucose DMEM (Sigma, D5796-500ML) supplemented with 10% fetal bovine serum (080-150, Wisent) and 1% Penstrep (15140122, Gibco) at 37° C. in a 5% CO2 atmosphere incubator (67/340,1045, CellXpert C170, Eppendorf). Cells used for experiments were maintained at a <80% confluency and <25 passages, and were dissociated using TrypIE (12604013, Gibco).
HT22 cells were seeded at 4×10^3 cells in 100 μL of the high glucose DMEM+10% fetal bovine serum+1% Penstrep media on replicate wells of 96-well plates (83.3924.300, Sarstedt) for 20 hours at 37° C. in a 5% CO2 atmosphere humidified incubator. Cells were then pretreated with 5 μL of the indicated LXB4 concentration, or vehicle, one hour prior to addition of 3 mM glutamate stressor. Cells were exposed for 13 hours, then evaluated for cell viability using an XTT assay, according to the manufacturer's instructions (11465015001, Roche). The resulting absorbance values were read in a BMG CLARIOstar microplate reader under 490 nm excitation following 2 hours of XTT incubation and analyzed using Graphpad Prism 9 for ANOVA analyses and curve fitting.

[1] = test system: retinal ganglion cell death; details: acute and chronic models of retinal ganglion cell death, glaucoma; cited from earlier work
neuronal cell types = details: cited from earlier work
[2] = Storage and handling stability of LXB4; assay type: physicochemical
Procedure: Instability of LXB4 presented a substantial obstacle its synthesis and purification. […] Telescoping the final transformations from 27 to 2, preventing light exposure, and storing all crude intermediates in a methanol solution were required to obtain LXB4 of sufficient purity. LXB4 could be stored as a solution in methanol or ethanol at −20° C. for several weeks or at −80° C. for one to three months before substantial degradation was observed.
Dimethylethoxysilane (560 uL, 4.03 mmol, 8.0 equiv.) was added in one portion, followed by dropwise addition of Karstedt's catalyst (platinum(0)-1,3-divinyl-1,1,3,3,-tetramethyldisoloxane complex, 2% Pt) (115 μL, 0.010 mmol, 2 mol %). The round bottom flask was covered with foil to prevent UV exposure and the solution was stirred overnight at room temperature. […] The crude reaction mixture was filtered through a silica plug, which was washed with Et2O, and the collected filtrate was dried under vacuum to afford a yellow-brown oil. This oil was redissolved in anhydrous THF (4.4 mL) under argon. The solution was again wrapped in foil, and a solution of TBAF in THF (1.0 M, 4.0 mL, 8.0 equiv.) was added dropwise. The reaction was stirred at room temperature for 20 minutes. […] Another […] was added dropwise. […] The reaction was quenched by the addition of phosphate buffer (pH 7) and water and extracted with diethyl ether. The combined organic phase was dried over Na2SO4 and concentrated in vacuo. The crude oil was immediately redissolved in THF/H2O (3:1, 2.5 mL) and treated with LiOH (12.1 mg, 0.50 mmol, 1.0 equiv.) mmol. The resulting solution was stirred at room temperature in a round-bottom flask wrapped in aluminium foil until TLC indicated complete conversion. The reaction mixture was flash filtered through celite to remove any residual LiOH solid and washed with THF. The remaining solvent was removed in vacuo to afford a sticky yellow residue, which was immediately redissolved in MeOH. […] This material was purified by reverse phase HPLC (XBridge BEH OBD Prep column, 130A, 5 μM, 30 mm×150 mm) using a mobile phase of H2O+0.05% NH4OH (A) and acetonitrile+0.05% NH4OH (B) and a gradient elution of 97:3 A:B to 67:33 A:B. After lyophilization, we obtained 98.7 mg of LXB4 for a yield of 56% over three steps. LXB4 should be stored on dry ice until injected into the HPLC. In a solution in methanol at room temperature, formation of impurities which are extremely difficult to separate by HPLC occurred in 1-2 hours.

SMILES | neuroprotection in glutamate injury model (HT22 neuronal cells; n=8, p<0.05) | neuroprotection in glutamate injury model (HT22 neuronal cells; n=8, p<0.05, listed as synthesized LXB4) | EC50 (HT22 neuronal cells; Mus musculus, HT-22, glutamate injury, dose response curve, n=8) | efficacy in vivo [1] | potency relative to LXA4 (neuronal cell types; established neuronal injury model, also primary cortical, hippocampal and retinal ganglion cells) | potency and efficacy in direct neuroprotection compared with LXA4 (neuronal cell types; variety of neuronal cell types, acute and chronic injury models of glaucoma) | stability to air and light [2] | stability in HPLC buffer ([2]; HPLC buffer) | stability stored as a solid ([2]; crude or purified material, room temperature) | stability stored as a solid ([2]; low temperature (−20° C.)) | time to formation of impurities ([2]; solution in methanol at room temperature) | storage time before substantial degradation ([2]; solution in methanol or ethanol at −20° C.) | storage time before substantial degradation ([2]; solution in methanol or ethanol at −80° C.)
CCCCC[C@H](O)[C@H](O)/C=C/C=C/C=C\C=C\[C@@H](O)CCCC(=O)O [LXB4, (5S,6E,8Z,10E,12E,14R,15S)-5,14,15-trihydroxyicosa-6,8,10,12-tetraenoic acid] | significantly neuroprotective | significant protection | 293 nM | efficacy in vivo | 20 fold | significantly more potent and efficacious than LXA4 | highly unstable | stable in HPLC buffer for several hours | rapid degradation | rapid degradation | 1 to 2 h | several weeks | one to three
CCCCC[C@H](O)[C@H](O)/C=C/C=C/C=C\C=C\[C@@H](O)CCCC(=O)O [commercial LXB4, reference compound] | significantly neuroprotective; also recorded: significant protection | – | – | – | – | – | – | – | – | – | – | – | –

Source: patent US20250288549A1, “SYNTHETIC PROCESS FOR PRODUCTION OF LIPOXIN B4 AND ANALOGUES THEREOF” (UNIVERSITY HEALTH NETWORK, priority 2022, published 2025)
